# Results taken from patent US8354443B2, “Cyclopropane indolinone derivatives” (Hoffmann-La Roche Inc., priority 2009, dated 2013).
# Tested on: recombinant AMPK proteins (α1β1γ1, α2β1γ1, α1(1-335), α1(1-394) or α2(1-394))
# Assay: Scintillation Proximity Assay (AMPK activation)
# Type: biochemical, human
# Conditions: effective concentration of activator for 50% of maximal enzyme activity; 2 hr at 30° C.; AMPK form not specified
# Text: Recombinant human AMPK α1β1γ1, α2β1γ1 or AMPK a subunit truncations α1 (1-335), α1 (1-394) and α2(1-394) were constructed, expressed and purified as described previously (Pang, T., Zhang, Z. S., Gu, M., Qiu, B. Y., Yu, L. F., Cao, P. R., Shao, W., Su, M. B., Li, J. Y., Nan, F. J., and Li, J. (2008) or purchased from Invitrogen (San Diego, Calif., U.S.A.). Rat liver AMPK heterotrimer enzyme was obtained from Upstate (Billerica, Mass., U.S.A.).
# Before the Scintillation Proximity Assay (SPA) assay, 200 nM recombinant AMPK proteins (α1β1γ1, α2β1γ1, α1(1-335), α1(1-394) or α2(1-394)) were fully phosphorylated as described previously (Pang et al., 2008). SPA reactions were performed in 96-well plates at a final volume of 50 μl containing 20 mM Tris-HCl pH 7.5, 5 mM MgCl2, 1 mM DTT, 2 μM biotin-SAMS, 2 μM ATP, 0.2 μCi/well [γ-^33P]ATP, and various amount of activator. Reactions were initiated by the addition of 50 nM recombinant AMPK proteins to the reaction solutions and incubated at 30° C. for 2 hr. After that, reactions were terminated by the addition of 40 μl stop solution containing 80 μg streptavidin-coated SPA beads per well, 50 mM EDTA, 0.1% Triton X-100 in PBS, pH 7.5 and incubated for 1 hr. Finally, a 160 μl suspension solution containing 2.4 M CsCl, 50 mM EDTA, and 0.1% Triton X-100 in PBS (pH 7.5) was added to the reaction solution to suspend SPA beads completely. SPA signals were determined with a Wallac MicroBeta plate counter (PerkinElmer) 30 min later for calculation of the amount of product formed. The amount of products formed in 2 hr was plotted against activator concentrations to determine the effective concentration of the activator (EC50) required for 50% of maximal enzyme activity.
row,EC50 [nM],SMILES
1,1660,"COc1cccc([C@H]2C[C@]23C(=O)N(Cc2cccc(C(=O)O)c2)c2ccccc23)c1 (racemic) [Example 18, (1S,2R) and (1R,2S)-3-((2-(3-methoxyphenyl)-2′-oxospiro[cyclopropane-1,3′-indoline]-1′-yl)methyl)benzoic acid]"
2,1250,"O=C(O)Cn1cnc(N2C(=O)[C@]3(C[C@@H]3c3ccc(Cl)cc3)c3ccccc32)c1 (racemic) [Example 80, (1S,2R) and (1R,2S)-2-(4-(2-(4-chlorophenyl)-2′-oxospiro[cyclopropane-1,3′-indoline]-1′-yl)-1 H-imidazol-1-yl)acetic acid]"
3,6730,"CS(=O)(=O)N1CCN(C(=O)c2cccc(N3C(=O)[C@]4(C[C@H]4c4ccc(Cl)cc4)c4ccccc43)c2)CC1 (racemic) [Example 87, (1S,2S) and (1R,2R)-2-(4-chlorophenyl)-1′-(3-(4-(methylsulfonyl)piperazine-1-carbonyl)phenyl)spiro[cyclopropane-1,3′-indolin]-2′-one]"
4,1500,"O=C(O)c1cc(N2CCCC2=O)cc(N2C(=O)[C@]3(C[C@H]3c3ccc(Cl)cc3)c3ccccc32)c1 (racemic) [Example 94, (1S,2S) and (1R,2R)-3-(2-(4-chlorophenyl)-2′-oxospiro[cyclopropane-1,3′-indoline]-1′-yl)-5-(2-oxopyrrolidin-1-yl)benzoic acid]"
5,4500,"O=C1N(CCNCCCN2CCOCC2)c2ccccc2[C@@]12C[C@@H]2c1ccc(Cl)cc1 (racemic) [Example 127, (1S,2R) and (1R,2S)-2-(4-chlorophenyl)-1′-(2-(3-morpholinopropylamino)ethyl) spiro[cyclopropane-1,3′-indolin]-2′-one]"
6,1370,"CNC(=O)c1cccc(CN2C(=O)[C@@]3(C[C@H]3c3ccc(Cl)cc3)c3ccccc32)c1 (racemic) [Example 110, (1R,2S) and (1S,2R)-3-((2-(4-chlorophenyl)-2′-oxospiro[cyclopropane-1,3′-indoline]-1′-yl)methyl)-N-methylbenzamide]"
7,1420,"COc1cccc([C@@H]2C[C@]23C(=O)N(Cc2cccc(C(=O)O)c2)c2ccccc23)c1 (racemic) [Example 19, (1S,2S) and (1R,2R)-3-((2-(3-methoxyphenyl)-2′-oxospiro[cyclopropane-1,3′-indoline]-1′-yl)methyl)benzoic acid]"
8,5140,"CS(=O)(=O)N1CCN(C(=O)c2cccc(CN3C(=O)[C@@]4(C[C@H]4c4ccc(Cl)cc4)c4ccccc43)c2)CC1 (racemic) [Example 115, (1R,2S) and (1S,2R)-2-(4-chlorophenyl)-1′-(3-(4-(methylsulfonyl)piperazine-1-carbonyl)benzyl)spiro[cyclopropane-1,3′-indolin]-2′-one]"
9,8800,"CC(C)N1CCN(CCN2C(=O)[C@]3(C[C@@H]3c3ccc(Cl)cc3)c3ccccc32)CC1 (racemic) [Example 74, (1S,2R) and (1R,2S)-2-(4-chlorophenyl)-1′-(2-(4-isopropylpiperazin-1-yl)ethyl)spiro [cyclopropane-1,3′-indolin]-2′-one]"
10,3200,"CCN(CC)CCN1C(=O)[C@]2(C[C@@H]2c2ccc(Cl)cc2)c2ccccc21 (racemic) [Example 71, (1S,2R) and (1R,2S)-2-(4-chlorophenyl)-1′-(2-(diethylamino)ethyl)spiro[cyclopropane-1,3′-indolin]-2′-one]"
11,1650,"CS(=O)(=O)N1CCC(CN2C(=O)[C@]3(C[C@@H]3c3ccc(Cl)cc3)c3ccccc32)CC1 (racemic) [Example 73, (1S,2R) and (1R,2S)-2-(4-chlorophenyl)-1′-((1-(methylsulfonyl)piperidin-4-yl)methyl) Spiro[cyclopropane-1,3′-indolin]-2′-one]"
12,1750,"O=C1N(CCN2CCCCC2)c2ccccc2[C@@]12C[C@@H]2c1ccc(Cl)cc1 (racemic) [Example 125, (1S,2R) and (1R,2S)-2-(4-chlorophenyl)-1′-(2-(piperidin-1-yl)ethyl)spiro[cyclopropane-1,3′-indolin]-2′-one]"
13,2980,"O=C(O)c1cccc(CN2C(=O)[C@]3(C[C@@H]3c3cccc(Cl)c3)c3ccccc32)c1 (racemic) [Example 3, (1S,2R) and (1R,2S)-3-((2-(3-chlorophenyl)-2′-oxospiro[cyclopropane-1,3′-indoline]-1′-yl)methyl)benzoic acid]"
14,1540,"O=C1N(CC2CCOCC2)c2ccccc2[C@@]12C[C@@H]2c1ccc(Cl)cc1 (racemic) [Example 70, (1S,2R) and (1R,2S)-2-(4-chlorophenyl)-1′-((tetrahydro-2 H-pyran-4-yl)methyl)spiro[cyclopropane-1,3′-indolin]-2′-one]"
15,2720,"O=C(O)c1cccc(CN2C(=O)[C@]3(C[C@@H]3c3ccc(Cl)cc3)c3cc(Br)ccc32)c1 (racemic) [Example 16, (1S,2R) and (1R,2S)-3-((5′-bromo-2-(4-chlorophenyl)-2′-oxospiro[cyclopropane-1,3′-indoline]-1′-yl)methyl)benzoic acid]"
16,5750,"O=C(O)c1cccc(CN2C(=O)[C@]3(C[C@@H]3c3ccc(F)cc3)c3ccccc32)c1 (racemic) [Example 24, (1S,2R) and (1R,2S)-3-((-2-(4-fluorophenyl)-2′-oxospiro[cyclopropane-1,3′-indoline]-1′-yl)methyl)benzoic acid]"
17,4100,"O=C1N(CCN2CCOCC2)c2ccccc2[C@@]12C[C@@H]2c1ccc(Cl)cc1 (racemic) [Example 72, (1S,2R) and (1R,2S)-2-(4-chlorophenyl)-1′-(2-morpholinoethyl) spiro[cyclopropane-1,3′-indolin]-2′-one]"
18,990,"O=C(Nc1cc(C2CC2)[nH]n1)c1cccc(CN2C(=O)[C@]3(C[C@@H]3c3ccc(Cl)cc3)c3ccccc32)c1 (racemic) [Example 117, (1S,2R) and (1R,2S)-3-((2-(4-chlorophenyl)-2′-oxospiro[cyclopropane-1,3′-indoline]-1′-yl)methyl)-N-(5-cyclopropyl-1H-pyrazol-3-yl)benzamide]"
19,4330,"O=C(Nc1cc(C2CC2)n[nH]1)c1cccc(CN2C(=O)[C@]3(C[C@@H]3c3ccc(Cl)cc3)c3ccccc32)c1 (racemic) [Example 116, (1S,2R) and (1R,2S)-3-((2-(4-chlorophenyl)-2′-oxospiro[cyclopropane-1,3′-indoline]-1′-yl)methyl)-N-(3-cyclopropyl-1H-pyrazol-5-yl)benzamide]"
20,1540,"O=C(c1cccc(CN2C(=O)[C@@]3(C[C@H]3c3ccc(Cl)cc3)c3ccccc32)c1)N1CCOCC1 (racemic) [Example 63, (1R,2S) and (1S,2R)-2-(4-chlorophenyl)-1′-(3-(morpholine-4-carbonyl)benzyl)spiro[cyclopropane-1,3′-indolin]-2′-one]"
21,910,"CS(=O)(=O)c1cc(C(=O)O)cc(N2C(=O)[C@]3(C[C@H]3c3ccc(Cl)cc3)c3ccccc32)c1 (racemic) [Example 93, (1S,2S) and (1R,2R)-3-(2-(4-chlorophenyl)-2′-oxospiro[cyclopropane-1,3′-indoline]-1′-yl)-5-(methylsulfonyl)benzoic acid]"
22,1090,"CN(C)[C@H]1CCN(CCN2C(=O)[C@]3(C[C@@H]3c3ccc(Cl)cc3)c3ccccc32)C1 (mixture of isomers) [Example 76, (1S,2R)-2-(4-chlorophenyl)-1′-(2-((S)-3-(dimethylamino)pyrrolidin-1-yl)ethyl)spiro[cyclopropane-1,3′-indolin]-2′-one and (1R,2S)-2-(4-chlorophenyl)-1′-(2-((S)-3-(dimethylamino)pyrrolidin-1-yl)ethyl)spiro[cyclopropane-1,3′-indolin]-2′-one]"
23,4030,"O=C(O)c1cn(CCN2C(=O)[C@]3(C[C@H]3c3ccc(Cl)cc3)c3ccccc32)cn1 (racemic) [Example 82, (1S,2S) and (1R,2R)-1-(2-(2-(4-chlorophenyl)-2′-oxospiro[cyclopropane-1,3′-indoline]-1′-yl)ethyl)-1H-imidazole-4-carboxylic acid]"
24,8670,"CC(C)NC(=O)c1cccc(CN2C(=O)[C@@]3(C[C@H]3c3ccc(Cl)cc3)c3ccccc32)c1 (racemic) [Example 61, (1R,2S) and (1S,2R)-3-((2-(4-chlorophenyl)-2′-oxospiro[cyclopropane-1,3′-indoline]-1′-yl)methyl)-N-isopropylbenzamide]"

row,SMILES,EC50 [nM]
1,"O=C(c1cccc(CN2C(=O)[C@]3(C[C@@H]3c3ccc(Cl)cc3)c3ccccc32)c1)N1CCCCC1 (racemic) [Example 60, (1S,2R) and (1R,2S)-2-(4-chlorophenyl)-1′-(3-(piperidine-1-carbonyl)benzyl) Spiro[cyclopropane-1,3′-indolin]-2′-one]",3500
